Drawing on PMC10574185, “Encapsulation and Biological Activity of Hesperetin Derivatives with HP-β-CD” (Molecules, 2023), this text covers DPPH antioxidant activity and zone of inhibition for four compounds.

Assay [1] can be described thus: DPPH assay (antioxidant activity). The conditions noted are these: concentration 0.1 mg/mL, mean ± SD. How it is done:
To evaluate the antioxidant ability of the tested systems, antioxidant analysis was performed. Antioxidants can scavenge hydroxyl radicals in two ways: by reacting directly with hydroxyl radicals (DPPH^•, ABTS^•+) or indirectly inhibiting the formation of hydroxyl radicals by chelating metal ions involved in the production of hydroxyl radicals. The antioxidant activity of the systems studied was investigated by using DPPH^• scavenging, ABTS^•+ scavenging ability, and Fe^2+-chelating ability. In this study, the antioxidant activity of pure hesperetin and its Schiff bases (HHSB, HIN, and HTSC) and HP-β-CD complexes were compared, and the positive control was Trolox.
The detailed methodology of DPPH assay was described in the previous paper by Sykuła et al..
For orientation: DPPH is a stable violet radical that fades when it is reduced.

For assay [2], the system named is Listeria monocytogenes ATCC 19111. Kind of assay: Antagonistic activity, diffusion-well method. The format is cell-based. The following applies: ATCC19111, compounds at 2.5 µM, wells 8 mm, 37 °C, 18 h. The method, then:
(§1) The antimicrobial activity of the HESP, ligands ([…], and HTSC), and complexes with HP-β-CD were tested against Gram-positive bacteria (Listeria monocytogenes ATCC 19111, Listeria monocytogenes ATCC 19112, Listeria monocytogenes ATCC 19115, Staphylococcus aureus ATCC 29737, Staphylococcus aureus ATCC 25923, Staphylococcus aureus ATCC 27734) and Gram-negative bacteria (Escherichia coli ATCC 11303, Escherichia coli ATCC 35218, Salmonella Typhimurium, ATCC 14028, Salmonella Enteritidis ATCC 13076, Salmonella Choleraesuis ATCC 7001). The strains were activated from cryobanks by passaging them twice onto a Nutrient Broth (Merck, Darmstadt, Germany). All bacteria were grown for 24 h at 37 °C. Antagonistic activity of the following chemical compounds: […], and […] determined by the diffusion-well method. The test strains were plated on Mueller-Hinton Agar (Merck, Darmstadt, Germany) in the form of a surface layer of bacteria according to the procedures recommended by the European Committee on Antimicrobial Susceptibility Testing EUCAST [74]. The detailed methodology was described in the paper by Sykuła et al.. Bacterial inoculum was prepared from an overnight solid culture. The inoculum density was 1-2 × 10^8 CFU/mL, which corresponds to a McFarland standard of 0.5. The samples of the test compounds were dissolved in 5% (w/w) DMSO to obtain a concentration of 500 μM, and were sterilized using filtration (filter pore width 0.2 μm; (Sartorius AG, Gottingen, Germany). The bacteria inoculum test culture (0.1 mL) smear conducted was on sterile Mueller-Hinton Agar (Merck, Darmstadt, Germany) plates. […] A total of 50 μL of the prepared solutions of the tested compounds at a concentration of 500 μM were added to the wells. The plates prepared in this way were incubated at 37 °C for 18 h. After this time, zones of growth inhibition were read and the result was given in mm. The experiment was carried out in two independent repetitions. The results were expressed in average values and standard deviation. The results were analyzed using a one-way ANOVA and post-hoc Tukey's test.

For assay [3], the system named is Listeria monocytogenes ATCC 19112. Description: Antagonistic activity, diffusion-well method. Format: cell-based. The following applies: ATCC19112, compounds at 2.5 µM, wells 8 mm, 37 °C, 18 h. The method, then: as §1
The subject of assay [4] is Listeria monocytogenes ATCC 19115. Description: Antagonistic activity, diffusion-well method. Format: cell-based. The following applies: ATCC19115, compounds at 2.5 µM, wells 8 mm, 37 °C, 18 h. The method, then: as §1
Assay [5] deals with Salmonella Choleraesuis ATCC 7001. Description: Antagonistic activity, diffusion-well method. The format is cell-based. The conditions noted are these: Salmonella enterica, compounds at 2.5 µM, wells 8 mm, 37 °C, 18 h. The method, then:
as §1

The test system of assay [6] is Salmonella Enteritidis ATCC 13076. Description: Antagonistic activity, diffusion-well method. The format is cell-based. The following applies: Salmonella enterica, compounds at 2.5 µM, wells 8 mm, 37 °C, 18 h. How it is done: as §1
The test system of assay [7] is Salmonella Typhimurium ATCC 14028. Description: Antagonistic activity, diffusion-well method. The format is cell-based. The following applies: Salmonella enterica, compounds at 2.5 µM, wells 8 mm, 37 °C, 18 h. How it is done: as §1
Assay [8] relates to Staphylococcus aureus ATCC 27734. Kind of assay: Antagonistic activity, diffusion-well method. The format is cell-based. The following applies: ATCC27734, compounds at 2.5 µM, wells 8 mm, 37 °C, 18 h. The method, then:
as §1

The term zone of inhibition denotes the size of the clear area around the sample on an inoculated plate. A lower zone of inhibition goes with little suppression of growth. Take `COc1ccc(C2C/C(=N\NC(=O)c3ccncc3)c3c(O)cc(O)cc3O2)cc1O` (racemic) [HIN]: in assay [1], the DPPH antioxidant activity was 34.62 ± 3.8%. Also, the zone of inhibition at 2.5 µM in assay [2], in assay [3], in assay [4], in assay [5], in assay [6] and in assay [7] was 0 mm each time. The zone of inhibition at 2.5 µM in assay [8] worked out at 0 mm.

Consider `COc1ccc(C2CC(=O)c3c(O)cc(O)cc3O2)cc1O` (centres unmarked) [Hesperetin, 3′,5,7-Trihydroxy-4′-methoxyflavanone], for which the DPPH antioxidant activity in assay [1] is on record as 38.08 ± 2.7%. Besides, the zone of inhibition at 2.5 µM in assay [2], in assay [3], in assay [4], in assay [5], in assay [6] and in assay [7] was 0 mm each time. In assay [8], the zone of inhibition at 2.5 µM turned out to be 0 mm.

In assay [1], `COc1ccc(C2CC(=NNC(N)=S)c3c(O)cc(O)cc3O2)cc1O` (centres unmarked) [HTSC, N-[2,3-dihydro-5,7-dihydroxy-2-(3-hydroxy-4-methoxyphenyl)chromen-4-ylidene]thiosemicarbazide] showed a DPPH antioxidant activity of 93.72 ± 6.8%. Besides, the zone of inhibition at 2.5 µM in assay [2], in assay [3], in assay [4], in assay [5], in assay [6] and in assay [7] was 0 mm in each case. Moreover, the zone of inhibition at 2.5 µM in assay [8] is 0 mm.

In the case of `COc1ccc(C2C/C(=N\NC(=O)c3ccccc3)c3c(O)cc(O)cc3O2)cc1O` (racemic) [HHSB], in assay [1], the DPPH antioxidant activity was 44.29 ± 4.5%. Moreover, the zone of inhibition at 2.5 µM in assay [2], in assay [3], in assay [4], in assay [5], in assay [6] and in assay [7] was 0 mm each time. Moreover, the zone of inhibition at 2.5 µM in assay [8] stood at 0 mm.
